Data as given in patent US11337964B2, “Isoindoline derivative, pharmaceutical composition and use thereof” (Kangpu Biopharmaceuticals, Ltd., priority 2017, dated 2022).
Read-outs that look alike come from different tables or passages of the source.

Legend:
[1] = biological target: T1, PDE4B1 (Homo sapiens, UniProt Q07343); test: PDE4 activity inhibition assay, PDE4B1; assay type: biochemical; details: FAM-cAMP substrate, 30 minutes at room temperature
T1 construct: purchased BPS 60041
Experimental: (§1) The IC50 value of the inhibitory effect of the compound on PDE4A1A, PDE4B1 and PDE4D3 was tested.
(§2) Positive compound: Trequinsin (Sigma, Cat. No. T2057).
(§3) Equipment: Wallac Victor Multi-label counter (Perkin Elmer).
(§4) I. Preparing 1× reaction liquid and termination liquid;
(§5) II. PDE enzymatic reaction; • 1) The PDE was dissolved in 1× reaction solution to form 2× enzyme solution. • 2) FAM-cAMP was dissolved in 1× reaction solution to form 2× substrate solution. • 3) Echo 550 was used to transfer the corresponding volume of the compound in DMSO solution to the reaction plate. • 4) 2× enzyme solution was added into the corresponding well of the reaction plate and incubated with the compound solution at room temperature for 15 minutes. • 5) 2× substrate solution was added into the corresponding well of the reaction plate to initiate the reaction. • 6) Reaction plate was incubated at room temperature for 30 minutes and terminated by adding termination liquid, then incubated at room temperature for 60 minutes.
(§6) The inhibition rate was calculated by Excel; IC50 was calculated by GraphPad Prism.

[2] = biological target: T2, PDE4D3 (Homo sapiens, UniProt Q08499); test: PDE4 activity inhibition assay, PDE4D3; assay type: biochemical; details: FAM-cAMP substrate, 30 minutes at room temperature
T2 construct: purchased BPS 60046
T2 sequence (Q08499 1-673 isoform Q08499-2): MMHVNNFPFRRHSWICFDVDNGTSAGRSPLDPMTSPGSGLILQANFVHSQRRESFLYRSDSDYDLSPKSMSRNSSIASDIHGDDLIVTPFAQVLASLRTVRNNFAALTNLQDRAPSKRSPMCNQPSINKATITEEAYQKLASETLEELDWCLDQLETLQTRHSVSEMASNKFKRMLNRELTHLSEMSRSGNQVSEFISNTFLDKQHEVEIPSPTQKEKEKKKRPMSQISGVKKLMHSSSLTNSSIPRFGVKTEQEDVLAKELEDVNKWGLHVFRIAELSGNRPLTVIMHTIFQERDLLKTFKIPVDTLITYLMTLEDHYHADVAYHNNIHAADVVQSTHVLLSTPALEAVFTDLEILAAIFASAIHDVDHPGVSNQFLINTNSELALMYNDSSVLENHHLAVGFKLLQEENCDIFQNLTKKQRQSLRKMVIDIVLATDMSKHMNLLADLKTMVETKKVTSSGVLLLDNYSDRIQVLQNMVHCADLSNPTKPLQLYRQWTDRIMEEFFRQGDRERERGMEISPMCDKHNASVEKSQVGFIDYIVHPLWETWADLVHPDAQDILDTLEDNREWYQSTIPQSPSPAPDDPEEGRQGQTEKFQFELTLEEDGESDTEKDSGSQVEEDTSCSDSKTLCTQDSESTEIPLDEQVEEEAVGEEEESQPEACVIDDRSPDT
Experimental: as §1, §2, §3, §4, §5, §6

[3] = PK parameter test in SD rats; assay type: in vivo, Sprague-Dawley rats; details: male SD rats; for Tmax / AUC / half-life: Sprague-Dawley, rat, plasma; for F: po 10 mg/kg vs iv 3 mg/kg
Experimental: Test compounds were administered intravenously or intragastrically singly to SD rats.
Blood samples were collected at different time points. LC-MS/MS was used to determine the concentration of the test compounds in rat plasma after administration of tested compounds and calculate the relevant PK parameters.
The test compounds are calculated based on free radicals and are converted only by purity.
A suitable amount of the test compound was added 5% DMSO+95% HP-beta-CD (20%) to prepare a solution of 0.6 mg/mL for intravenous administration.
A suitable amount of the test compound was added 5% DMSO+95% HP-beta-CD (20%) to prepare a solution of 1 mg/mL for intragastrical administration.
Male Sprague-Dawley rats were purchased from Shanghai Xipuer-Bikai Laboratory Animal Co., Ltd. There were 3 rats in each group. One group was used as control to collect blank plasma. The other groups were given each test compound by intravenous injection (the dose was 3 mg/kg) or intragastrical administration (the dose was 10 mg/kg). Heparin sodium was used for anticoagulation. Analyze the concentration of the test compound in the blood sample.
Abrosia for 10-14 hours before oral administration of the test compounds and resume feeding 4 hours after oral administration of the test compounds.
The time points of blood sample collection were: intravenous injection: before administration and at 0.083 hour, 0.25 hour, 0.5 hour, 1 hour, 2 hour, 4 hour, 6 hour, 8 hour, 24 hour after administration; oral administration: before administration and at 0.25 hour, 0.5 hour, 1 hour, 2 hour, 4 hour, 6 hour, 8 hour, 24 hour after administration. Blood samples were collected through jugular vein puncture. About 0.25 mL blood was collected for each sample. Heparin sodium was used for anticoagulation and the samples were placed on ice after collection. Blood samples were placed on ice after collection, and plasma was separated by centrifugation (centrifugation condition: 8000 rpm, 6 min, 2-8° C.). The collected plasma was stored at −80° C. before analysis.
50 μL plasma sample was added into a 1.5 mL centrifugal tube, and 250 μL internal standard solution (the same volume of methanol was added to blank sample instead of internal standard) was added to the sample. The sample was mixed in a whirlpool and centrifuged for 5 minutes at 14000 rpm. The supernatant of 200 μL was added to 96-well plate for LC-MS/MS analysis.
The pharmacokinetic parameters of the test compounds were calculated using the non-compartment model of WinNonlin v5.2, a software for pharmacokinetic calculation, based on the data of plasma concentration.

[4] = biological target: T3, PDE4A1A (Homo sapiens, UniProt P27815); test: PDE4 activity inhibition assay, PDE4A1A; assay type: biochemical; details: FAM-cAMP substrate, 30 minutes at room temperature
T3 construct: purchased BPS 60040
T3 sequence (P27815 1-647 isoform P27815-4): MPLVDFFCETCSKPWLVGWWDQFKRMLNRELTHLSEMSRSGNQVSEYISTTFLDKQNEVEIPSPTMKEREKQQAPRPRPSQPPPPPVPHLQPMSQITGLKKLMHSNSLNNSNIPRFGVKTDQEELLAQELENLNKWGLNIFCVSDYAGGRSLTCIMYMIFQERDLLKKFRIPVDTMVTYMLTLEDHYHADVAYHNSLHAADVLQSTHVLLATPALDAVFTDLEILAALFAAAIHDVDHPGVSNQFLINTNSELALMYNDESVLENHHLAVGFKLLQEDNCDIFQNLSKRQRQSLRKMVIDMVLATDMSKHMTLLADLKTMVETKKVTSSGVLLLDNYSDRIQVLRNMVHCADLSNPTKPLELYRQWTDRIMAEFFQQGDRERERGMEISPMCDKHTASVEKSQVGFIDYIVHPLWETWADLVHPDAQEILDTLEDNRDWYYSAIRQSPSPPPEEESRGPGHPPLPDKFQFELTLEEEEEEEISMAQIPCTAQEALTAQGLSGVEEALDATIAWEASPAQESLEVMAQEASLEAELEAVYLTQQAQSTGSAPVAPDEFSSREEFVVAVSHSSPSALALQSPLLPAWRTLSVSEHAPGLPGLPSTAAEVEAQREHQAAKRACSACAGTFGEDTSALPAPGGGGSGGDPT
Experimental: as §1, §2, §3, §4, §5, §6

[5] = po, intragastrical administration 10 mg/kg
[6] = po, intragastrical administration 10 mg/kg, read-out: AUC(po)
[7] = po, intragastrical administration 10 mg/kg, read-out: T1/2(po) (converted)
[8] = intravenous injection 3 mg/kg, read-out: AUC(iv)
[9] = intravenous injection 3 mg/kg, read-out: T1/2 (IV) (converted)

T1 sequence (Q07343 whole entry): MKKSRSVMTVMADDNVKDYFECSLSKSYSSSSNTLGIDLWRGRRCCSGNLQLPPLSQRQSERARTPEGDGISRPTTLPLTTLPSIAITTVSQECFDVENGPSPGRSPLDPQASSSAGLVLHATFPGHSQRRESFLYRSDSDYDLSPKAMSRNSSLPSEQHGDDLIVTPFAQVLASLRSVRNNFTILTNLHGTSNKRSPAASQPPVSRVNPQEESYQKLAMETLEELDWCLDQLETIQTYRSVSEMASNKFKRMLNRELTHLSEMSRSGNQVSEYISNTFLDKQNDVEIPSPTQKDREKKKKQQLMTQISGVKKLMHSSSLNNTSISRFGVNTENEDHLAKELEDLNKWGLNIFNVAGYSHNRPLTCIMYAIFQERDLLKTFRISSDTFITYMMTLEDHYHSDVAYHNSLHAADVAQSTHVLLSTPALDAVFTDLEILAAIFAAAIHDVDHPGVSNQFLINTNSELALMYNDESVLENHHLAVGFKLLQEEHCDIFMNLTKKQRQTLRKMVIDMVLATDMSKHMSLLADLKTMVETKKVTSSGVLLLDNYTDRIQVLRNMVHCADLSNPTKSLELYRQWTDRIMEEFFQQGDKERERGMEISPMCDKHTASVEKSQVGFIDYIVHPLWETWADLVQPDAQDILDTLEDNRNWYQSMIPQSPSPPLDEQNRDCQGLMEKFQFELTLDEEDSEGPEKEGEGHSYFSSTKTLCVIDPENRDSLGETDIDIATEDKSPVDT

| SMILES | IC50 [1] | IC50 [2] | Tmax [3, 5] | AUC [3, 6] | half-life [3, 7] | AUC [3, 8] | half-life [3, 9] | F [3] | IC50 [4] |
| --- | --- | --- | --- | --- | --- | --- | --- | --- | --- |
| [2H]C([2H])([2H])Oc1ccc([C@@H](CS(C)(=O)=O)N2C(=O)c3cc(F)cc(NC(C)=O)c3C2=O)cc1OCC [Compound 203, (S)—N-(2-(l-(3-ethoxy-4-d3-methoxyphenyl)-2-(methylsulfonyl)ethyl)-6-fluoro-1,3-dioxoisoindolin-4-yl)acetamide] | 31 nM | 18 nM | 30 min | 250 ng·h/mL | 52.2 min | 1010 ng·h/mL | 57 min | 7.4 | 22 nM |
| CCOc1nc([C@@H](CS(C)(=O)=O)N2C(=O)c3cccc(NC(C)=O)c3C2=O)ccc1OC [Compound 702, (S)—N-(2-(1-(6-ethoxy-5-methoxypyridin-2-yl)-2-(methylsulfonyl)ethyl)-1,3-dioxoisoindolin-4-yl)acetamide] | 4.7 nM | 4 nM | 40.2 min | 1050 ng·h/mL | 392 min | 1330 ng·h/mL | 22.8 min | 15.5 | 2.2 nM |
| CCOc1cc([C@@H](CS(C)(=O)=O)N2C(=O)c3cccc(NC(C)=O)c3C2=O)ccc1OC [Reference compound 2, reference compound] |  |  | 60 min | 785 ng·h/mL | 56.4 min | 1050 ng·h/mL | 28.2 min | 22.5 |  |
| [2H]C([2H])([2H])Oc1ccc([C@@H](CS(C)(=O)=O)N2C(=O)c3c(F)ccc(NC(C)=O)c3C2=O)cc1OCC [Compound 103, (S)—N-(2-(1-(3-ethoxy-4-d3-methoxyphenyl)-2-(methylsulfonyl)ethyl)-7-fluoro-1,3-dioxoisoindolin-4-yl)acetamide] | 12.8 nM | 3.7 nM | 120 min | 4120 ng·h/mL | 230 min | 1260 ng·h/mL | 63 min | 98.2 | 7.25 nM |
| CCOc1nc([C@@H](CS(C)(=O)=O)N2C(=O)c3c(F)ccc(NC(C)=O)c3C2=O)ccc1OC [Compound 705, (S)—N-(2-(1-(6-ethoxy-5-methoxypyridin-2-yl)-2-(methylsulfonyl)ethyl)-7-fluoro-1,3-dioxoisoindolin-4-yl)acetamide] | 1.6 nM | 0.53 nM | 30 min | 3590 ng·h/mL | 555 min | 1340 ng·h/mL | 55.2 min | 80.2 | 0.58 nM |
| CCOc1nc([C@@H](CS(C)(=O)=O)N2C(=O)c3cc(F)cc(NC(C)=O)c3C2=O)ccc1OC [Compound 708, (S)—N-(2-(1-(6-ethoxy-5-methoxypyridin-2-yl)-2-(methylsulfonyl)ethyl)-6-fluoro-1,3-dioxoisoindolin-4-yl)acetamide] | 5.1 nM | 1.6 nM | 40.2 min | 51 ng·h/mL | 253 min | 945 ng·h/mL | 32.4 min | 1.62 | 3.1 nM |
| CCOc1cc(C(CS(C)(=O)=O)N2C(=O)c3cccc(NC(C)=O)c3C2=O)cnc1OC (stereo not drawn) [Compound 801, N-(2-(1-(5-ethoxy-6-methoxypyridin-3-yl)-2-(methylsulfonyl)ethyl)-1,3-dioxoisoindolin-4-yl)acetamide] | 364 nM | 202 nM |  |  |  |  |  |  | 295 nM |
| CCOc1cc([C@@H](CS(C)(=O)=O)N2C(=O)c3cc(F)cc(NC(C)=O)c3C2=O)ccc1OC [Compound 202, (S)—N-(2-(1-(3-ethoxy-4-methoxyphenyl)-2-(methylsulfonyl)ethyl)-6-fluoro-1,3-dioxoisoindolin-4-yl)acetamide] | 11 nM | 5.4 nM |  |  |  |  |  |  | 11 nM |
| CCOc1nc(C(CS(C)(=O)=O)N2C(=O)c3c(F)ccc(NC(=O)CN(C)C)c3C2=O)ccc1OC (stereo not drawn) [Compound 751, 2-(dimethylamino)-N-(2-(1-(6-ethoxy-5-methoxypyridin-2-yl)-2-(methylsulfonyl)ethyl)-7-fluoro-1,3-dioxoisoindolin-4-yl)acetamide] | 9.9 nM | 3.1 nM |  |  |  |  |  |  | 5 nM |
